Each structure is given as a SMILES string. Read-outs that look alike come from different tables or passages of the source.

Common to all, as to type: cell-based
The test system of one experiment is MCF7_NF1KD. Kind of experiment: growth inhibition, 3 days. To be noted: Homo sapiens. On the procedure:
(§1) MCF7 cells cultured in phenol red-free RPMI1640 medium containing 10% charcoal stripped FBS were transfected with NF1 siRNA to a final concentration of […] using Lipofectamine RNAiMAX. The cells were then incubated for 1 day at 37° C., 5% CO2. After that, E2 (estrogen) was added to the medium at 1 nmol/L final concentration, and the cells were cultured for 3 days, after which the cells were collected and cell extracts were prepared.
(§2) To investigate the growth inhibition effect of Compound (1) on the NF1-depleted ER+/HER2− breast cancer cells, MCF7 and T47D, the serially diluted Compound (1) was exposed to the cells for 3 days as in the previous experiment.
(§3) The growth inhibition curve in MCF7 and T47D cells were obtained and the half maximal inhibitory concentration (IC50) value of growth inhibition were calculated as shown in Table 1.

The subject of the next experiment is MCF7. Kind of experiment: growth inhibition, 3 days. To be noted: Homo sapiens, MCF7, NF1 WT. On the procedure: as §1, §2, §3
In another experiment the test system is T47D_NF1KD. Briefly: growth inhibition, 3 days. On the procedure:
as §1, §2, §3

In a further experiment the test system is T47D. Kind of experiment: growth inhibition, 3 days. To be noted: Homo sapiens, NF1 WT. Here is the method: as §1, §2, §3
The next experiment has as its system LU65. Kind of experiment: 3-day growth inhibition assay. To be noted: Homo sapiens, Lu-65; LU65 (NSCLC), KRAS p.G12C; read-out: Growth inhibition (IC50: nmol/L). Here is the method:
The IC50 values for each compound in cell lines used in a series of animal experiments evaluating the antitumor effects of Compound (1) on KRAS mutant tumor xenografts were determined by a 3-day growth inhibition assay (Table 7).

Where [1] appears, read: with estrogen, read-out: IC50 (nmol/L) E2 (+).
Setting [2] is: without estrogen, read-out: IC50 (nmol/L) E2 (−).

`CC(C)(C)NCCNc1ccc(-c2nnc(C(F)(F)F)o2)nc1C1CCN(c2ncnc3c2C(C)(C)C(=O)N3)CC1` [Compound (1), 4-(4-(3-((2-(tert-butylamino)ethyl)amino)-6-(5-(trifluoromethyl)-1,3,4-oxadiazol-2-yl)pyridin-2-yl)piperidin-1-yl)-5,5-dimethyl-5H-pyrolo[2,3-d]pyrimidin-6(7H)-one]: the IC50 with MCF7_NF1KD (setting [1]) was determined as 188 nmol/L; in the experiment with MCF7_NF1KD (setting [2]), 294 nmol/L; with MCF7 (setting [1]), 108 nmol/L; in the experiment on MCF7 (setting [2]) it was 89 nmol/L; in the experiment on T47D_NF1KD (setting [1]) it was 37 nmol/L; in the experiment on T47D_NF1KD (setting [2]), 111 nmol/L. Moreover, the IC50 was 65 nmol/L with T47D (setting [1]), 125 nmol/L in the experiment on T47D (setting [2]) and 92.9 nmol/L with LU65.
